Measured values published in patent publication US10208034B2, “Quinoline derivative” (ONO PHARMACEUTICAL CO., LTD., priority 2014, dated 2019).

target: T1, Axl enzyme (Homo sapiens, UniProt P30530); test: Measurement of Axl inhibitory activity (LanthaScreen TR-FRET, in vitro test); assay type: biochemical; conditions: Fluorescein-Poly GT substrate
T1 sequence (P30530 26-894): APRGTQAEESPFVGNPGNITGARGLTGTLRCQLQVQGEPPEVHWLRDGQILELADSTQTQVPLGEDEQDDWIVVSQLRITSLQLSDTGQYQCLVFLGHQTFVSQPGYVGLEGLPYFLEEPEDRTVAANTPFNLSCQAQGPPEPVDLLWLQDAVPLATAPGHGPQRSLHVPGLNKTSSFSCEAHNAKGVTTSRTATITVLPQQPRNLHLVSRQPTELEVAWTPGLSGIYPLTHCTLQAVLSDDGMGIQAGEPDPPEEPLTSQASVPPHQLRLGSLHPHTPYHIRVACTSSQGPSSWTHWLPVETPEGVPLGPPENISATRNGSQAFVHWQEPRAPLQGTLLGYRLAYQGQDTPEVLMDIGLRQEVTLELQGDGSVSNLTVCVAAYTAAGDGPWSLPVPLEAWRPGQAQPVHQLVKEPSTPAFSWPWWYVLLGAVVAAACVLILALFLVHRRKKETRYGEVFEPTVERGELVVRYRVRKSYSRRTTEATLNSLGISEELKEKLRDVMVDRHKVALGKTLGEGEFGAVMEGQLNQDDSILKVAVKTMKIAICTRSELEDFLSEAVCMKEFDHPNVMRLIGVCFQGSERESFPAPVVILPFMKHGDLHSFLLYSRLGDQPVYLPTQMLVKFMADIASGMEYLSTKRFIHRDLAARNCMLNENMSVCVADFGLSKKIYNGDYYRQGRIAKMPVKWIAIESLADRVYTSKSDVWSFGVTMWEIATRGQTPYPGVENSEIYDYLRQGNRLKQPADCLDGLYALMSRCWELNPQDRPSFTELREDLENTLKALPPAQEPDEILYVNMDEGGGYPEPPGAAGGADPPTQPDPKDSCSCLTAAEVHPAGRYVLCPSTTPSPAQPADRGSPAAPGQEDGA
Method: Axl enzyme inhibitory activity was measured by using LanthaScreen (registered trademark) system (Invitrogen) based on the attached instruction. The reagents used are shown below.
Reaction buffer solution: a solution containing 50 mmol/L HEPES (pH7.5), 0.01% Brij35, 10 mmol/L MgCl2 and 1 mmol/L EGTA was prepared by using purified water.
Test substance solution: a solution containing a test compound of 5-fold concentration with respect to the final concentration was prepared by 20-fold diluting a DMSO solution of test compound of each concentration with the reaction buffer solution.
Enzyme solution: a solution containing 400 ng/mL Axl enzyme was prepared by using the reaction buffer solution.
Substrate solution: a solution containing 45 μmol/L ATP and 500 nmol/L Fluorescein-Poly GT (Invitrogen) was prepared by using the reaction buffer solution.
Detection solution: a solution containing 20 mM EDTA and 4 nM PY20 (Invitrogen) was prepared by using Dilution B (Invitrogen).
A 10 mmol/L DMSO solution of the test compound was dispensed into a 96-well plate (Nunc), and, furthermore, a 3-fold dilution series was prepared using DMSO. In each well of the 96-well plate for measurement, 5 μL each of the reaction buffer solution containing DMSO was added to a Blank group and a medium group, and 5 μL of the test substance solution was added to the test substance group, respectively. Next, 10 μL/well of the reaction buffer solution was added to the Blank group, and 10 μL/well each of the enzyme solution was added to the medium group and the test compound group, followed by stirring at room temperature for 10 min. After the completion of stirring, 10 μL each of the substrate solution was added into each well, followed by stirring at room temperature with light shielded for one hour. After the completion of reaction, 25 μL each of the detection solution was added to each well, and stood still at room temperature with light shielded for 30 min. After standing sill, fluorescence intensity at 520 nm and 495 nm at the time of irradiation with exciting light of 340 nm was measured by using Analyst GT (Molecular Devices). The phosphorylation of the artificial substrate was quantified by Time-resolved Fluorescence Resonance Energy Transfer (TR-FRET). TR-FRET ratio was calculated by dividing 520 nm fluorescence signal by 495 nm fluorescence signal for each well, and the inhibition rate (%) in the test compound group was calculated based on the following mathematical formula. Inhibition rate (%)=[1−(TR-FRET ratio of test compound group−A)/(B−A)×100 [Math. 1] A: average value of TR-FRET ratios of Blank group B: average value of TR-FRET ratios of medium group
Values of 50% inhibition rate (IC50 values) of the test compound were calculated from the inhibition curve based on the inhibition rate of the test compounds in each concentration.

IC50 [nM] | SMILES
1.5 | COc1cc2nccc(Oc3ccc(NC(=O)c4cc(C(C)=O)cn(-c5ccccc5)c4=O)nc3)c2cc1OC [Example 21, 5-acetyl-N-{5-[(6,7-dimethoxy-4-quinolinyl)oxy]-2-pyridinyl}-2-oxo-1-phenyl-1,2-dihydro-3-pyridinecarboxamide]
1.3 | COc1cc2nccc(Oc3ccc(NC(=O)c4cc5ccncc5n(-c5ccccc5)c4=O)nc3)c2cc1OC [Example 28, N-{5-[(6,7-dimethoxy-4-quinolinyl)oxy]-2-pyridinyl}-2-oxo-1-phenyl-1,2-dihydro-1,7-naphthyridine-3-carboxamide]
3.5 | COc1cc2nccc(Oc3ccc(NC(=O)c4c5c(cn(-c6ccccc6)c4=O)C(=O)CCC5)nc3)c2cc1OC [Example 42, N-{5-[(6,7-dimethoxy-4-quinolinyl)oxy]-2-pyridinyl}-3,8-dioxo-2-phenyl-2,3,5,6,7,8-hexahydro-4-isoquinolinecarboxamide]
1.5 | COc1cc2nccc(Oc3ccc(NC(=O)c4cc5c(n(-c6ccccc6)c4=O)CCCNC5=O)nc3)c2cc1OC [Example 66, N-{5-[(6,7-dimethoxy-4-quinolinyl)oxy]-2-pyridinyl}-2,5-dioxo-1-phenyl-2,5,6,7,8,9-hexahydro-1H-pyrido[3,2-c]azepine-3-carboxamide]
